One experiment concerns HeLa cells. As to the kind of experiment: Proliferation assay HeLa (Method 3). In kind it is cell-based, human. The conditions noted are these: 4 days, crystal violet, read-out: Inhibition of HeLa cell proliferation IC50. The protocol: Cultivated tumour cells (HeLa, human cervical tumour cells, ATCC CCL-2; NCI-H460, human non-small cell lung carcinoma cells, ATCC HTB-177; A2780, human ovarian carcinoma cells, ECACC #93112519; DU 145, hormone-independent human prostate carcinoma cells, ATCC HTB-81; HeLa-MaTu-ADR, multidrug-resistant human cervical carcinoma cells, EPO-GmbH Berlin; Caco-2, human colorectal carcinoma cells, ATCC HTB-37; B16F10, mouse melanoma cells, ATCC CRL-6475) were plated at a density of 5,000 cells/well (DU145, HeLa-MaTu-ADR), 3,000 cells/well (NCI-H460, HeLa), 2,500 cells/well (A2780), 1,500 cells/well (Caco-2), or 1,000 cells/well (B16F10) in a 96-well multititer plate in 200 μL of their respective growth medium supplemented 10% fetal calf serum. After 24 hours, the cells of one plate (zero-point plate) were stained with crystal violet (see below), while the medium of the other plates was replaced by fresh culture medium (200 μl), to which the test substances were added in various concentrations (0 μM, as well as in the range of 0.001-10 μM; the final concentration of the solvent dimethyl sulfoxide was 0.5%). The cells were incubated for 4 days in the presence of test substances. Cell proliferation was determined by staining the cells with crystal violet: the cells were fixed by adding 20 μl/measuring point of an 11% glutaric aldehyde solution for 15 minutes at room temperature. After three washing cycles of the fixed cells with water, the plates were dried at room temperature. The cells were stained by adding 100 μl/measuring point of a 0.1% crystal violet solution (pH 3.0). After three washing cycles of the stained cells with water, the plates were dried at room temperature. The dye was dissolved by adding 100 μl/measuring point of a 10% acetic acid solution. The extinction was determined by photometry at a wavelength of 595 nm. The change of cell number, in percent, was calculated by normalization of the measured values to the extinction values of the zero-point plate (=0%) and the extinction of the untreated (0 μm) cells (=100%). The IC50 values (inhibitory concentration at 50% of maximal effect) were determined by means of a 4 parameter fit.

In another experiment the target is T1, CDK2/CycE (Homo sapiens, UniProt P24941).
T1 construct: GST; purchased ProQinase GmbH (Freiburg, Germany); host or cells: insect cells (Sf9)
As to the kind of experiment: CDK2/CycE high ATP kinase assay (Method 2b, TR-FRET). The class given is biochemical. The note with it: 2 mM ATP. The protocol:
2b. CDK2/CycE High ATP Kinase Assay:
CDK2/CycE-Inhibitory Activity of Compounds of the Present Invention at 2 mM Adenosine-Tri-Phosphate (ATP) was Quantified Employing the CDK2/CycE TR-FRET (TR-FRET=Time Resolved Fluorescence Energy Transfer) Assay as Described in the Following Paragraphs.
Recombinant fusion proteins of GST and human CDK2 and of GST and human CycE, expressed in insect cells (Sf9) and purified by Glutathion-Sepharose affinity chromatography, were purchase from ProQinase GmbH (Freiburg, Germany). As substrate for the kinase reaction biotinylated peptide biotin-Ttds-YISPLKSPYKISEG (C-terminus in amid form) was used which can be purchased e.g. form the company JERINI peptide technologies (Berlin, Germany).
For the assay 50 nl of a 100 fold concentrated solution of the test compound in DMSO was pipetted into a black low volume 384 well microtiter plate (Greiner Bio-One, Frickenhausen, Germany), 2 yl of a solution of CDK2/CycE in aqueous assay buffer [50 mM Tris/HCl pH 8.0, 10 mM MgCl2, 1.0 mM dithiothreitol, 0.1 mM sodium ortho-vanadate, 0.01% (v/v) Nonidet-P40 (Sigma)] were added and the mixture was incubated for 15 min at 22° C. to allow pre-binding of the test compounds to the enzyme before the start of the kinase reaction. […] The concentration of CDK2/CycE was adjusted depending of the activity of the enzyme lot and was chosen appropriate to have the assay in the linear range, typical concentrations were in the range of 15 ng/ml. The reaction was stopped by the addition of 5 yl of a solution of TR-FRET detection reagents (0.2 μM streptavidine-XL665 [Cisbio Bioassays, Codolet, France] and 1 nM anti-RB(pSer807/pSer811)-antibody from BD Pharmingen [#558389] and 1.2 nM LANCE EU-W1024 labeled anti-mouse IgG antibody [Perkin-Elmer, product no. AD0077, as an alternative a Terbium-cryptate-labeled anti-mouse IgG antibody from Cisbio Bioassays can be used]) in an aqueous EDTA-solution (100 mM EDTA, 0.2% (w/v) bovine serum albumin in 100 mM HEPES/NaOH pH 7.0).
The resulting mixture was incubated 1 h at 22° C. to allow the formation of complex between the phosphorylated biotinylated peptide and the detection reagents. Subsequently the amount of phosphorylated substrate was evaluated by measurement of the resonance energy transfer from the Eu-chelate to the streptavidine-XL. Therefore, the fluorescence emissions at 620 nm and 665 nm after excitation at 350 nm were measured in a TR-FRET reader, e.g. a Rubystar (BMG Labtechnologies, Offenburg, Germany) or a Viewlux (Perkin-Elmer). The ratio of the emissions at 665 nm and at […] was taken as the measure for the amount of phosphorylated substrate. The data were normalised (enzyme reaction without inhibitor=0% inhibition, all other assay components but no enzyme=100% inhibition).

Like-named read-outs stand apart in the source and are kept apart here.

Consider `CS(=N)(=O)Cc1cccc(Nc2ncc(F)c(-c3ccc(F)c4ccoc34)n2)c1` (single isomer, unassigned) [Example 6, 5-Fluoro-4-(4-fluoro-1-benzofuran-7-yl)-N-{3-[(S-methylsulfonimidoyl)-methyl]-phenyl}-pyrimidin-2-amine], for which the results for the IC50 in the experiment with HeLa cells and at CDK2/CycE were 0.115 µM and 1 µM, respectively.

Consider `CS(=N)(=O)Cc1cc(F)cc(Nc2ncc(F)c(-c3ccc(F)c4ccoc34)n2)c1` (single isomer, unassigned) [Example 11, 5-Fluoro-4-(4-fluoro-1-benzofuran-7-yl)-N-{3-fluoro-5-[(S-methylsulfonimidoyl)-methyl]-phenyl}-pyrimidin-2-amine], for which the IC50 was 0.031 µM in the experiment on HeLa cells (Homo sapiens, 96 h) and 0.913 µM against CDK2/CycE.

For the origin of these results see patent US9884849B2, “Fluorinated benzofuranyl-pyrimidine derivatives containing a sulfoximine group” (Bayer Pharma Aktiengesellschaft, priority 2014, dated 2018).
